Earlier results on two compounds are cited in patent US20250255843A1, “COMPOSITIONS COMPRISING CYSTEINE PRODRUGS AND METHODS USING THEREOF” (Nature's Fusions, LLC, priority 2022, published 2025).

For series [1] the following is noted: more stable than cysteine.
For series [2] the following is noted: oral; metabolized in liver and kidney.
The conditions of series [3]: in vivo.
The conditions of series [4]: cell membrane.
Another series has as its system oxidative damage. To be noted: relative to NAC.

Consider `CC(=O)N[C@@H](CS)C(=O)O` [NAC, N-acetyl L-cysteine], for which the “stability relative to cysteine” value in series [1] is listed as “about 10 times”. In series [2], the detectability in plasma entry is “almost undetectable in plasma”. Besides, the increase of plasma with plasma GSH (medium to high doses (up to 8 g/day)) was 5-20%. In addition, the bioavailability in series [3] is 4-6%. In series [4], the membrane penetration entry is “poorly membrane penetrable”.

For the compound `CCOC(=O)[C@H](CS)NC(C)=O` [NACET, N-acetyl L-cysteine ethyl ester], the “increase of plasma GSH” value with plasma GSH (lower than 8 g/day doses) is given as 250%. The bioavailability in series [3] is reported as 60-80%. Further, in series [4], the membrane penetration result is recorded as “cell-permeable”. In the series with oxidative damage, the “protective agent against oxidative damage, concentration lower than that of NAC” value is recorded as 5-10 times.
